Measurements from US9593305B2, “Differentiation of pluripotent stem cells” (Janssen Biotech, Inc., priority 2008, dated 2017).

Tested on: H1 human embryonic stem cells
Experiment: Step-wise differentiation, high content analysis of SOX17, cell number, insulin, glucagon (Example 16)
Assay type: cell-based
Experimental: The assay was initiated by aspirating the culture medium from each well and adding back an aliquot (0.5 ml) of test medium. Test conditions for the first step of differentiation were conducted over a three-day period, feeding daily by aspirating and replacing the medium from each well with fresh test medium. On the first day of assay, 100 ng/ml activin A (PeproTech; Cat #120-14) or 100 ng/ml GDF-8 (R&D Systems, Cat #788-G8) was added to respective assay wells where each growth factor was diluted into RPMI-1640 medium (Invitrogen; Cat #: 22400) with 2% Albumin Bovine Fraction V, Fatty Acid Free (FAF BSA) (Proliant Inc. Cat #: SKU 68700), and 20 ng/ml Wnt3a (R&D Systems; Cat #1324-WN/CF). On the second day of assay, 100 ng/ml activin A or 100 ng/ml GDF-8 was diluted into RPMI-1640 medium supplemented with 2% FAF BSA without Wnt3a. In some test samples using GDF-8, Wnt3a was replaced with a small molecule compound, added only on the first day of definitive endoderm differentiation. These small molecules included Compound 19 (2.5 μM in assay), Compound 202 (2.5 μM in assay), Compound 40 (2.5 μM in assay), or a commercially available GSK3 inhibitor BIO (0.5 μM in assay) (EMD Chemicals, Inc.; Cat #361550). At the conclusion of the first step of differentiation, cells from some wells were harvested for flow cytometry analysis to evaluate levels of CXCR4, a marker of definitive endoderm formation. Additional wells were harvested for RT-PCR analysis to measure other markers of differentiation.
Step 5 of the differentiation protocol was carried out over seven days in DMEM-high glucose with 0.1% Albumax, 0.5× Insulin-Transferrin-Selenium, and 1 μM Alk 5 inhibitor. […]
Imaging was performed using an IN Cell Analyzer 1000 (GE Healthcare) utilizing the 51008bs dichroic for cells stained with Hoechst 33342 and Alexa Fluor 488. […] Segmentation for the nuclei was determined based on gray-scale levels (baseline range 100-300) and nuclear size. Averages and standard deviations were calculated for each replicate data set. […]

Compound	relative cell numbers recovered through differentiation step 5 (GDF-8 with compound in step 1, relative to activin A and Wnt3a)	cell numbers and SOX17 expression after step 1 (100 ng/ml GDF-8 with 2.5 μM compound on first day)
CN1CCC(=O)NCCCc2cncc(c2)-c2ncnc(n2)Nc2cccc(c2)C1 [Compound 19, 14-Methyl-3,5,7,14,18,24,28-heptaazatetracyclo[20.3.1.1˜2,6˜0.1˜8,12˜]octacosa-1(26), 2(28), 3,5,8(27), 9,11,22,24-nonaen-17-one]	decrease in cell number	–
C=CCN1CC(=O)NCCCc2cncc(c2)-c2ncnc(n2)Nc2cccc(c2)C1 [Compound 40, 14-Prop-2-en-1-yl-3,5,7,14,17,23,27-heptaazatetracyclo[19.3.1.1˜2.6˜0.1˜8,12˜]heptacosa-1(25), 2(27), 3,5,8(26), 9,11,21,23-nonaen-16-one]	–	cell numbers in culture and SOX17 expression equivalent to treatment with activin A and Wnt3a
